Reference: article PMC5218480 (PLoS ONE, 2017)

Test system: MV-4-11 cells
Test: Gene expression microarray analysis (Affymetrix PrimeView) and GSEA
Format: cell-based, human
Parameters: RFU PODN (11730768_x_at) / Fold change /veh PODN (11730768_x_at) / RFU LINC00158 (11744669_a_at) / Fold change /veh LINC00158 (11744669_a_at) / RFU DUSP10 (11751237_a_at) / Fold change /veh DUSP10 (11751237_a_at) / RFU ID3 (11757404_x_at) / Fold change /veh ID3 (11757404_x_at) / RFU PLEKHG5 (11737974_s_at) / Fold change /veh PLEKHG5 (11737974_s_at) / RFU LRRC4B (11730491_at) / Fold change /veh LRRC4B (11730491_at) / RFU GIMAP4 (11747438_a_at) / Fold change /veh GIMAP4 (11747438_a_at) / RFU KRT8 (11758183_x_at) / Fold change /veh KRT8 (11758183_x_at) / RFU CNN1 (11734310_a_at) / Fold change /veh CNN1 (11734310_a_at) / RFU VPS37D (11726825_at) / Fold change /veh VPS37D (11726825_at) / RFU C10orf10 (11716522_x_at) / Fold change /veh C10orf10 (11716522_x_at) / RFU KIR2DL2 /// KIR2DL4 /// KIR2DL5A /// KIR2DL5B /// KIR2DS1 /// KIR2DS2 /// KIR2DS3 /// KIR2DS4 /// KIR3DL3 /// KIR3DL3 /// KIR3DS1 (11738374_at) / Fold change /veh KIR2DL2 /// KIR2DL4 /// KIR2DL5A /// KIR2DL5B /// KIR2DS1 /// KIR2DS2 /// KIR2DS3 /// KIR2DS4 /// KIR3DL3 /// KIR3DL3 /// KIR3DS1 (11738374_at) / RFU C1QL1 (11718748_at) / Fold change /veh C1QL1 (11718748_at) / RFU TMPRSS4 (11747572_a_at) / Fold change /veh TMPRSS4 (11747572_a_at) / RFU HAMP (11756126_x_at) / Fold change /veh HAMP (11756126_x_at) / RFU RNFT2 (11725882_a_at) / Fold change /veh RNFT2 (11725882_a_at) / RFU NR4A2 (11747474_a_at) / Fold change /veh NR4A2 (11747474_a_at) / RFU ABCC12 (11746883_a_at) / Fold change /veh ABCC12 (11746883_a_at) / RFU TMEM136 (11760407_x_at) / Fold change /veh TMEM136 (11760407_x_at) / RFU CLDN22 /// WWC2 (11732394_at) / Fold change /veh CLDN22 /// WWC2 (11732394_at) / RFU HLA-DPB1 (11760878_x_at) / Fold change /veh HLA-DPB1 (11760878_x_at) / RFU SPINT1 (11716480_a_at) / Fold change /veh SPINT1 (11716480_a_at) / RFU GAP43 (11754022_s_at) / Fold change /veh GAP43 (11754022_s_at) / RFU A4GNT (11735810_at) / Fold change /veh A4GNT (11735810_at) / RFU PRB3 (11715151_x_at) / Fold change /veh PRB3 (11715151_x_at) / RFU TUBB4B (11761932_at) / Fold change /veh TUBB4B (11761932_at) / RFU CAPN14 (11732068_a_at) / Fold change /veh CAPN14 (11732068_a_at) / RFU TMCC2 (11721928_a_at) / Fold change /veh TMCC2 (11721928_a_at) / RFU IRGQ (11745062_a_at) / Fold change /veh IRGQ (11745062_a_at) / RFU FAM174B (11720279_a_at) / Fold change /veh FAM174B (11720279_a_at) / RFU TMPRSS4 (11748680_a_at) / Fold change /veh TMPRSS4 (11748680_a_at) / RFU FAM212B (11763350_a_at) / Fold change /veh FAM212B (11763350_a_at) / RFU PLEKHG5 (11743358_a_at) / Fold change /veh PLEKHG5 (11743358_a_at) / RFU ZSCAN30 (11745921_a_at) / Fold change /veh ZSCAN30 (11745921_a_at) / RFU CMKLR1 (11741424_a_at) / Fold change /veh CMKLR1 (11741424_a_at) / RFU LOC101060620 /// MAPK8IP1 (11723275_at) / Fold change /veh LOC101060620 /// MAPK8IP1 (11723275_at) / RFU SPTSSB (11747773_x_at) / Fold change /veh SPTSSB (11747773_x_at) / RFU PRSS12 (11739890_at) / Fold change /veh PRSS12 (11739890_at) / RFU BIN1 (11741810_x_at) / Fold change /veh BIN1 (11741810_x_at) / RFU WNT11 (11732464_a_at) / Fold change /veh WNT11 (11732464_a_at) / RFU C10orf10 (11716521_a_at) / Fold change /veh C10orf10 (11716521_a_at) / RFU C5orf56 (11738089_at) / Fold change /veh C5orf56 (11738089_at) / RFU CYB561 (11721691_x_at) / Fold change /veh CYB561 (11721691_x_at) / RFU ANKRD19P (11752326_a_at) / Fold change /veh ANKRD19P (11752326_a_at) / RFU OR2T12 /// OR2T33 /// OR2T8 (11738714_s_at) / Fold change /veh OR2T12 /// OR2T33 /// OR2T8 (11738714_s_at) / RFU VCAN (11748164_a_at) / Fold change /veh VCAN (11748164_a_at) / RFU JSRP1 (11732532_at) / Fold change /veh JSRP1 (11732532_at) / RFU KRTAP10-11 (11738290_x_at) / Fold change /veh KRTAP10-11 (11738290_x_at) / RFU MYO3A (11730013_a_at) / Fold change /veh MYO3A (11730013_a_at) / RFU EBF3 (11725865_a_at) / Fold change /veh EBF3 (11725865_a_at) / RFU CAMK2N1 (11719241_x_at) / Fold change /veh CAMK2N1 (11719241_x_at) / RFU C5orf56 (11738088_a_at) / Fold change /veh C5orf56 (11738088_a_at) / RFU OLFML3 (11715873_a_at) / Fold change /veh OLFML3 (11715873_a_at) / RFU LOC100653217 /// NTM (11731650_a_at) / Fold change /veh LOC100653217 /// NTM (11731650_a_at) / RFU MAPK11 (11762145_a_at) / Fold change /veh MAPK11 (11762145_a_at) / RFU FIZ1 (11724087_x_at) / Fold change /veh FIZ1 (11724087_x_at) / RFU OASL (11726364_x_at) / Fold change /veh OASL (11726364_x_at) / RFU SOX15 (11748057_x_at) / Fold change /veh SOX15 (11748057_x_at) / RFU CD79A (11719716_a_at) / Fold change /veh CD79A (11719716_a_at) / RFU HIST1H1D (11736915_at) / Fold change /veh HIST1H1D (11736915_at) / RFU CASKIN2 (11723855_a_at) / Fold change /veh CASKIN2 (11723855_a_at) / RFU LOC730098 (11760151_x_at) / Fold change /veh LOC730098 (11760151_x_at) / RFU OR4N2 (11742367_at) / Fold change /veh OR4N2 (11742367_at) / RFU PRRT2 (11749266_a_at) / Fold change /veh PRRT2 (11749266_a_at) / RFU SNX32 (11753110_a_at) / Fold change /veh SNX32 (11753110_a_at) / RFU CDHR5 (11726645_a_at) / Fold change /veh CDHR5 (11726645_a_at) / RFU RCAN1 (11760418_a_at) / Fold change /veh RCAN1 (11760418_a_at) / RFU FAM167A (11723789_a_at) / Fold change /veh FAM167A (11723789_a_at) / RFU FAM26E (11764081_at) / Fold change /veh FAM26E (11764081_at) / RFU ISYNA1 (11749810_s_at) / Fold change /veh ISYNA1 (11749810_s_at) / RFU ACY1 (11761880_at) / Fold change /veh ACY1 (11761880_at) / RFU 11764098_at / Fold change /veh 11764098_at / RFU SAMD14 (11745864_x_at) / Fold change /veh SAMD14 (11745864_x_at) / RFU NPB (11741838_a_at) / Fold change /veh NPB (11741838_a_at) / RFU TMPRSS6 (11731388_a_at) / Fold change /veh TMPRSS6 (11731388_a_at) / RFU KRTAP10-2 (11738614_at) / Fold change /veh KRTAP10-2 (11738614_at) / RFU ARHGAP8 /// PRR5-ARHGAP8 (11727945_x_at) / Fold change /veh ARHGAP8 /// PRR5-ARHGAP8 (11727945_x_at) / RFU KRTAP5-7 /// NADSYN1 (11734609_at) / Fold change /veh KRTAP5-7 /// NADSYN1 (11734609_at) / RFU RASL12 (11751679_a_at) / Fold change /veh RASL12 (11751679_a_at) / RFU CDKN2B (11736163_a_at) / Fold change /veh CDKN2B (11736163_a_at) / RFU PRF1 (11729649_at) / Fold change /veh PRF1 (11729649_at) / RFU, ZNF638 /// ZNF638-IT1 / Fold change vs veh, ZNF638 /// ZNF638-IT1 / RFU, PANK3 / Fold change vs veh, PANK3 / RFU, SH3YL1 / Fold change vs veh, SH3YL1 / RFU, ZEB2 / Fold change vs veh, ZEB2 / RFU, NRIP1 / Fold change vs veh, NRIP1 / RFU, PTTG1IP / Fold change vs veh, PTTG1IP / RFU, CAPN2 / Fold change vs veh, CAPN2 / RFU, MED14 / Fold change vs veh, MED14 / RFU, SNORA58 / Fold change vs veh, SNORA58 / RFU, C1orf63 / Fold change vs veh, C1orf63 / RFU, LRRFIP1 / Fold change vs veh, LRRFIP1 / RFU, NDUFAF7 / Fold change vs veh, NDUFAF7 / RFU, SLC12A2 / Fold change vs veh, SLC12A2 / RFU, IBTK / Fold change vs veh, IBTK / RFU, ESF1 / Fold change vs veh, ESF1 / Fold change vs veh, TMEM50B / RFU, TAOK1 / Fold change vs veh, TAOK1 / RFU, ACBD3 / Fold change vs veh, ACBD3 / RFU, TMA16 / Fold change vs veh, TMA16 / RFU, RWDD3 / Fold change vs veh, RWDD3 / RFU, BCAT1 / Fold change vs veh, BCAT1 / RFU, EDEM3 / Fold change vs veh, EDEM3 / RFU, TMEM33 / Fold change vs veh, TMEM33 / RFU, WDR75 / Fold change vs veh, WDR75 / RFU, AHCTF1 / Fold change vs veh, AHCTF1 / RFU, TFRC / Fold change vs veh, TFRC / RFU, ZDHHC17 / Fold change vs veh, ZDHHC17 / RFU, NOM1 / Fold change vs veh, NOM1 / RFU, ARL8B / Fold change vs veh, ARL8B / RFU, ZBTB11 / Fold change vs veh, ZBTB11 / RFU, TAMM41 / Fold change vs veh, TAMM41 / RFU, KIAA1704 /// LOC100996395 / Fold change vs veh, KIAA1704 /// LOC100996395 / RFU, ING1 / Fold change vs veh, ING1 / RFU, TRMT61B / Fold change vs veh, TRMT61B / RFU, FUBP3 / Fold change vs veh, FUBP3 / RFU, TP53 / Fold change vs veh, TP53 / RFU, TNKS2 / Fold change vs veh, TNKS2 / RFU, ZFP14 / Fold change vs veh, ZFP14 / RFU, ACTR2 / Fold change vs veh, ACTR2 / RFU, PPP3R1 / Fold change vs veh, PPP3R1 / RFU, PIK3R1 / Fold change vs veh, PIK3R1 / RFU, HNRNPA1 / Fold change vs veh, HNRNPA1 / RFU, RNF170 / Fold change vs veh, RNF170 / RFU, ZNF28 / Fold change vs veh, ZNF28 / RFU, RNGTT / Fold change vs veh, RNGTT / RFU, OGT / Fold change vs veh, OGT / RFU, BRD1 / Fold change vs veh, BRD1 / RFU, MARS / Fold change vs veh, MARS / RFU, ZNF655 / Fold change vs veh, ZNF655 / RFU, FAHD1 / Fold change vs veh, FAHD1 / RFU, BDP1 / Fold change vs veh, BDP1 / RFU, LRRCC1 / Fold change vs veh, LRRCC1 / RFU, ARID1A / Fold change vs veh, ARID1A / RFU, ZNF146 / Fold change vs veh, ZNF146 / RFU, ZNF330 / Fold change vs veh, ZNF330 / RFU, GPN3 / Fold change vs veh, GPN3 / RFU, C9orf123 / Fold change vs veh, C9orf123 / RFU, N4BP2L2 / Fold change vs veh, N4BP2L2 / RFU, ARFIP1 / Fold change vs veh, ARFIP1 / RFU, FAM179B / Fold change vs veh, FAM179B / RFU, BCL10 / Fold change vs veh, BCL10 / RFU, UHRF1BP1L / Fold change vs veh, UHRF1BP1L / RFU, BET1 / Fold change vs veh, BET1 / RFU, CNOT2 / Fold change vs veh, CNOT2 / RFU, ZNF268 / Fold change vs veh, ZNF268 / Fold change vs veh, ZNF507 / RFU, DGCR2 / Fold change vs veh, DGCR2 / RFU, WDSUB1 / Fold change vs veh, WDSUB1 / Fold change vs veh, HSP90B1 /// MIR3652 / RFU, ADSS / Fold change vs veh, ADSS / RFU, GK / Fold change vs veh, GK / RFU, ZNF148 / Fold change vs veh, ZNF148 / RFU, TAF9 / Fold change vs veh, TAF9 / RFU, SLC1A5 / Fold change vs veh, SLC1A5 / RFU, SLMO2 / Fold change vs veh, SLMO2 / RFU, ABCC4 / Fold change vs veh, ABCC4 / RFU, LOC101060439 /// RAP1B / Fold change vs veh, LOC101060439 /// RAP1B / RFU, RFX7 / Fold change vs veh, RFX7 / RFU, GTPBP10 / Fold change vs veh, GTPBP10 / RFU, CNEP1R1 / Fold change vs veh, CNEP1R1 / RFU, BIVM-ERCC5 /// ERCC5 / Fold change vs veh, BIVM-ERCC5 /// ERCC5 / RFU, ILF3 / Fold change vs veh, ILF3 / RFU 11762660_at / Fold change /veh 11762660_at / RFU VCAN (11757783_s_at) / Fold change /veh VCAN (11757783_s_at) / RFU DDX43 (11728927_at) / Fold change /veh DDX43 (11728927_at) / RFU KRT8 (11758188_x_at) / Fold change /veh KRT8 (11758188_x_at) / RFU NKD1 (11759106_at) / Fold change /veh NKD1 (11759106_at) / RFU SRD5A1 (11742802_a_at) / Fold change /veh SRD5A1 (11742802_a_at) / RFU TPSAB1 /// TPSB2 (11721975_s_at) / Fold change /veh TPSAB1 /// TPSB2 (11721975_s_at) / RFU GSTM3 (11746129_a_at) / Fold change /veh GSTM3 (11746129_a_at) / RFU IL23R (11737362_x_at) / Fold change /veh IL23R (11737362_x_at) / RFU TMEM51 (11727254_a_at) / Fold change /veh TMEM51 (11727254_a_at) / RFU PIWIL2 (11732686_x_at) / Fold change /veh PIWIL2 (11732686_x_at) / RFU ORM1 (11744905_x_at) / Fold change /veh ORM1 (11744905_x_at) / RFU CCDC152 (11743942_at) / Fold change /veh CCDC152 (11743942_at) / RFU ECM1 (11717891_a_at) / Fold change /veh ECM1 (11717891_a_at) / RFU IL23R (11748794_a_at) / Fold change /veh IL23R (11748794_a_at) / RFU TNFAIP8L3 (11732012_x_at) / Fold change /veh TNFAIP8L3 (11732012_x_at) / RFU MBOAT4 (11741988_at) / Fold change /veh MBOAT4 (11741988_at) / RFU 11764193_at / Fold change /veh 11764193_at / RFU TMEM53 (11763286_at) / Fold change /veh TMEM53 (11763286_at) / RFU MAGEB2 (11727129_at) / Fold change /veh MAGEB2 (11727129_at) / RFU TMEM200A (11744735_a_at) / Fold change /veh TMEM200A (11744735_a_at) / RFU CCDC152 (11751479_a_at) / Fold change /veh CCDC152 (11751479_a_at) / RFU FAM211A (11726209_a_at) / Fold change /veh FAM211A (11726209_a_at) / RFU RGS16 (11746705_a_at) / Fold change /veh RGS16 (11746705_a_at) / RFU VCAN (11755009_s_at) / Fold change /veh VCAN (11755009_s_at) / RFU RHOB (11743442_s_at) / Fold change /veh RHOB (11743442_s_at) / RFU RGS16 (11720943_a_at) / Fold change /veh RGS16 (11720943_a_at) / RFU RGS16 (11720944_at) / Fold change /veh RGS16 (11720944_at) / RFU, VPS4B / Fold change vs veh, VPS4B / RFU, CREB1 / Fold change vs veh, CREB1 / RFU, DNAJC13 / Fold change vs veh, DNAJC13 / RFU, GNAQ / Fold change vs veh, GNAQ / RFU, CDK5R1 / Fold change vs veh, CDK5R1 / RFU, ZRANB3 / Fold change vs veh, ZRANB3 / RFU, CUL4A / Fold change vs veh, CUL4A / RFU, CCNY / Fold change vs veh, CCNY / RFU, UFL1 / Fold change vs veh, UFL1 / RFU, COG3 / Fold change vs veh, COG3 / RFU, DIAPH2 / Fold change vs veh, DIAPH2 / RFU, SKA2 / Fold change vs veh, SKA2 / RFU, AFF3 / Fold change vs veh, AFF3 / RFU, LMF1 / Fold change vs veh, LMF1 / RFU, IPO11 / Fold change vs veh, IPO11 / RFU, DFFB / Fold change vs veh, DFFB / RFU, FOXP1 / Fold change vs veh, FOXP1 / RFU, CARD8 / Fold change vs veh, CARD8 / RFU, STRN3 / Fold change vs veh, STRN3 / RFU, ADK / Fold change vs veh, ADK / RFU, RASSF2 / Fold change vs veh, RASSF2 / RFU, WIPF1 / Fold change vs veh, WIPF1 / RFU, LARP1B / Fold change vs veh, LARP1B / RFU, RASA1 / Fold change vs veh, RASA1 / RFU, RB1 / Fold change vs veh, RB1 / RFU, PPFIA1 / Fold change vs veh, PPFIA1 / RFU, MAT2A / Fold change vs veh, MAT2A / RFU, CCT5 / Fold change vs veh, CCT5 / RFU, WDR92 / Fold change vs veh, WDR92 / RFU, CUX1 / Fold change vs veh, CUX1 / RFU, TTC7A / Fold change vs veh, TTC7A / RFU, TMEM135 / Fold change vs veh, TMEM135 / RFU, DEPTOR / Fold change vs veh, DEPTOR / RFU, CPM / Fold change vs veh, CPM / RFU, DNAJB6 / Fold change vs veh, DNAJB6 / RFU, CACNA2D3 / Fold change vs veh, CACNA2D3 / RFU, DTX4 / Fold change vs veh, DTX4 / RFU, TFCP2 / Fold change vs veh, TFCP2 / RFU, GMCL1 /// GMCL1P1 / Fold change vs veh, GMCL1 /// GMCL1P1 / RFU, AEBP2 / Fold change vs veh, AEBP2 / RFU, SNHG1 /// SNORD22 /// SNORD25 /// SNORD26 /// SNORD27 /// SNORD28 /// SNORD29 /// SNORD31 / Fold change vs veh, SNHG1 /// SNORD22 /// SNORD25 /// SNORD26 /// SNORD27 /// SNORD28 /// SNORD29 /// SNORD31 / Fold change (Aza/veh), C12orf56 (ProbeSet 11735607_a_at) / Fold change (ACY-1035/veh), C12orf56 (ProbeSet 11735607_a_at) / Fold change (Aza/veh), FGFR1OP (ProbeSet 11751329_s_at) / Fold change (ACY-1035/veh), FGFR1OP (ProbeSet 11751329_s_at) / Fold change (Aza/veh), VPS36 (ProbeSet 11739960_a_at) / Fold change (ACY-1035/veh), VPS36 (ProbeSet 11739960_a_at) / RFU SYPL1 (11715823_x_at) / Fold change /veh SYPL1 (11715823_x_at) / RFU IGFBP7 (11715501_s_at) / Fold change /veh IGFBP7 (11715501_s_at) / RFU REEP3 (11722064_at) / Fold change /veh REEP3 (11722064_at) / RFU IGLL1 (11728026_x_at) / Fold change /veh IGLL1 (11728026_x_at): dose or concentration left out as unconfirmed
Details: ProbeSet 11734937_a_at; LIST B

Nc1ncn([C@@H]2O[C@H](CO)[C@@H](O)[C@H]2O)c(=O)n1 [azacitidine]
RFU, CNOT2: 887.01 RFU
